{"source": "patent US8420631B2", "about": "“6-substituted-2,3,4,5-tetrahydro-1H-benzo[d]azepines as 5-HT2C receptor agonists” (Eli Lilly and Company, priority 2005, dated 2013)", "key": {"male NIH Swiss mice [1]": {"system": "male NIH Swiss mice", "test": "Marble burying assay", "format": "in vivo, mouse", "details": "with rotorod performance", "text": "Marble burying in mice has been used to model anxiety disorders including obsessive-compulsive disorders (OCD) due to ethological study of the behavior (e.g. Gyertyan I. “Analysis of the marble burying response: Marbles serve to measure digging rather than evoke burying”, Behavioural Pharmacology 6: 24-31, (1995)) and due to the pharmacological effects of clinical standards (c.f., Njung'E K. Handley S L. “Evaluation of marble-burying behavior as a model of anxiety”, Pharmacology, Biochemistry & Behavior. 38: 63-67, (1991)); Borsini F., Podhorna J., and Marazziti, D. “Do animal models of anxiety predict anxiolytic effects of antidepressants?”, Psychopharmacology 163: 121-141, (2002)).\nHouse experimentally-naïve male, NIH Swiss mice (Harlan Sprague-Dawley, Indianapolis, Ind.) weighing between 28-35 g in groups of 12 for at least three days prior to testing in a vivarium with 12 h light and dark cycles. Conduct experiments during the light cycle in a dimly lit experimental testing room. Dose mice with vehicle or test compound and, after a specified pretreatment interval (generally 30 min.), place each mouse individually on a rotorod (Ugo Basile 7650) operating at a speed of 6 revolutions/min. and observe for falling. […]\nClinically effective standard compounds suppress marble burying at doses that are devoid of motor-impairing effects as measured on the rotorod. […]"}, "Wistar rats [2]": {"system": "Wistar rats", "test": "Schedule-induced polydipsia", "details": "rat, in vivo", "text": "Food-deprived rats exposed to intermittent presentations of food will drink amounts of water that are far in excess of their normal daily intake and in excess of their intake when given all of their food at one time (Falk J L. “Production of polydipsia in normal rats by an intermittent food schedule”, Science 133: 195-196, (1961)). This excessive behavior is persistent and has been used to model OCD.\nMaintain Wistar rats on a food restricted diet (to maintain 85% free feeding weight), but with free access to water. Train the rats in a behavioral testing chamber to press a lever to receive a food pellet under a fixed interval schedule, such that the rats are rewarded with a 45 mg food pellet the first time they press a lever after a 120 second interval has elapsed. The fixed interval is then reset to 120 seconds and the process repeated. Thus, during a 90 min. test session, the rats can earn a maximum of 45 pellets. The behavioral chamber is also equipped with a water bottle that is weighed before and after the session to determine the amount of water consumed.\nAdminister test compounds on Tuesdays and Fridays. […] Compare the rates of lever pressing and water consumption for each animal's performance during sessions after test compound treatment with that animal's performance during control sessions, expressed as a percent of the control rate. […]"}, "male NIH Swiss mice [3]": {"system": "male NIH Swiss mice", "test": "Nestlet shredding", "format": "in vivo, mouse", "details": "with rotorod / motor effects", "text": "Mice naturally will construct nests of material available in their living environment. Since this behavior is obsessive in nature, it has been used to model OCD (Xia Li, Denise Morrow and Jeffrey M. Witkin, “Decreases in nestlet shredding of mice by serotonin uptake inhibitors: comparison with marble burying”, Psychopharmacology, submitted Jul. 14, 2003). House experimentally-naïve male, NIH Swiss mice (Harlan Sprague-Dawley, Indianapolis, Ind.) weighing between 28-35 g in groups of 12 for at least three days prior to testing in a vivarium with a 12 h light/dark cycle. Conduct experiments during the light cycle in an experimental room with normal overhead fluorescent lighting. Dose mice with vehicle or test compound and after a specified pretreatment interval (generally 30 min.), place the mice individually in a 17×28×12 cm high plastic tub with about 5 mm sawdust shavings on the floor along with a pre-weighed multi-ply gauze pad (51 mm square). After 30 min., weigh the remainder of the gauze pad not removed by the mouse. Determine the weight of the gauze used for nestlet construction by subtraction. Compare the results for test compound treated mice to the results for vehicle control treated mice with Dunnett's test.\nClinically effective OCD treatment standard compounds suppress nestlet shredding at doses that are devoid of motor-impairing effects as measured by the rotorod test. […]"}, "Wistar rats [4]": {"system": "Wistar rats", "details": "general statement on standards; cited from earlier work"}, "male NIH Swiss mice [5]": {"system": "male NIH Swiss mice", "details": "background statement; cited from earlier work"}}}
{"smiles": "CN(C)CCCN1c2ccccc2Sc2ccc(Cl)cc21", "note": "[chlorpromazine]", "values": [{"measurement": "marble burying behavior", "setting": "male NIH Swiss mice [1]", "value": "decrease marble burying only at doses that also disrupt rotorod performance"}]}
{"smiles": "C[C@H](N)Cc1ccccc1", "note": "[d-amphetamine]", "values": [{"measurement": "schedule-induced polydipsia (excessive drinking)", "setting": "Wistar rats [2]", "value": "decreases excessive drinking only at behaviorally stimulating doses"}, {"measurement": "suppression of excessive drinking with co-administration of the 5-HT2C antagonist", "setting": "Wistar rats [2]", "value": "not prevented"}, {"measurement": "nestlet shredding", "setting": "male NIH Swiss mice [3]", "value": "decreases nestlet shredding only at doses that produce motoric side effects"}]}
{"smiles": "CN(C)CCCN1c2ccccc2CCc2ccc(Cl)cc21", "note": "[chlomipramine]", "values": [{"measurement": "schedule-induced polydipsia, clinically effective OCD standard compounds", "setting": "Wistar rats [4]", "value": "suppress schedule-induced polydipsia without producing notable changes in motor patterns, food intake, or behavior the following day"}]}
{"smiles": "CNCCC(Oc1ccc(C(F)(F)F)cc1)c1ccccc1", "note": "(stereo not shown) [fluoxetine]", "values": [{"measurement": "schedule-induced polydipsia, clinically effective OCD standard compounds", "setting": "Wistar rats [4]", "value": "suppress schedule-induced polydipsia without producing notable changes in motor patterns, food intake, or behavior the following day"}, {"measurement": "marble burying (literature)", "setting": "male NIH Swiss mice [5]", "value": "decrease burying"}]}
